Measured values as given in PubChem BioAssay (NCI).
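Test compounds were applied to cells in 96-well plates for 48 hours at 5 doses. At the GI50, growth is halved. The concentration for full growth arrest is given as TGI.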

Experiments:
Assay in all cases: inhibition of tumour cell growth, NCI panel, 48 h
ACHN renal = test system: ACHN renal
HT29 colon = test system: HT29 colon
MCF7 breast = test system: MCF7 breast
786-0 renal = test system: 786-0 renal
HOP-92 NSCLC = test system: HOP-92 NSCLC
SK-MEL-5 melanoma = test system: SK-MEL-5 melanoma
LOX IMVI melanoma = test system: LOX IMVI melanoma
MDA-N = test system: MDA-N
COLO 205 colon = test system: COLO 205 colon
UACC-62 melanoma = test system: UACC-62 melanoma
SK-MEL-2 melanoma = test system: SK-MEL-2 melanoma

| Compound | TGI (ACHN renal) [µM] | TGI (HT29 colon) [µM] | TGI (MCF7 breast) [µM] | TGI (786-0 renal) [µM] | TGI (HOP-92 NSCLC) [µM] | TGI (SK-MEL-5 melanoma) [µM] | TGI (LOX IMVI melanoma) [µM] | TGI (MDA-N) [µM] | TGI (COLO 205 colon) [µM] | TGI (UACC-62 melanoma) [µM] | TGI (SK-MEL-2 melanoma) [µM] | GI50 (SK-MEL-2 melanoma) [µM] | GI50 (HT29 colon) [µM] | GI50 (MCF7 breast) [µM] | GI50 (HOP-92 NSCLC) [µM] | GI50 (SK-MEL-5 melanoma) [µM] | GI50 (LOX IMVI melanoma) [µM] | GI50 (COLO 205 colon) [µM] | GI50 (UACC-62 melanoma) [µM] |
| --- | --- | --- | --- | --- | --- | --- | --- | --- | --- | --- | --- | --- | --- | --- | --- | --- | --- | --- | --- |
| CCOC(=O)NC(OC)(C(F)(F)F)C(F)(F)F | > 100 | > 100 | > 100 | > 100 | > 100 | > 100 | > 100 | > 100 | > 100 | > 100 |  |  |  |  |  |  |  |  |  |
| O=C(Nc1cccc([N+](=O)[O-])c1)c1n[nH]n(-c2cccc([N+](=O)[O-])c2)c1=O | > 100 | > 100 | > 100 | > 100 |  | > 100 | > 100 | > 100 | > 100 | > 100 | > 100 |  |  |  |  |  |  |  |  |
| COC(=O)c1ccc(C)cc1CC1Cc2ccc(C)cc2C1=O (configuration not stated) | 80.8 | 11.1 | 19.9 | 48.5 | 61.4 | 19.6 | 14.8 |  | 26.1 | 51.4 | 30.6 |  |  |  |  |  |  |  |  |
| Cc1csc2c1-n1cccc1C2=O | > 100 | > 100 | > 100 | > 100 |  | > 100 | > 100 | > 100 | > 100 | > 100 | > 100 |  |  |  |  |  |  |  |  |
| CC(=O)Oc1c(-c2ccccc2)sc2ccccc12 | 32 | 35.3 | 56.4 | 28.9 | 49.8 | 44.5 | 26.4 |  | 30.2 | 63.2 | 31.4 |  |  |  |  |  |  |  |  |
| Cn1cc(-c2ccc3cc(-c4ccc(CC(=O)Nc5cc(C(C)(C)C)on5)cc4)cnc3c2)cn1 |  | > 100 | 17.8 |  | 26 | 6.55 | 10.9 |  | > 100 | 3.12 | 12.4 | 0.922 | 2.26 | 1.92 | 4.23 | 2.31 | 0.945 | 2.95 | 1.02 |
| CC1(C)CCC(C)(C)C1C(=O)NC(O)C(=O)O (configuration not stated) | > 100 |  | > 100 | > 100 |  | > 100 | > 100 | > 100 | > 100 | > 100 | > 100 |  |  |  |  |  |  |  |  |
| Cc1cccc(N2C(=O)C3c4[nH]c5ccccc5c4C4CCC(C(C)(C)C)CC4C3C2=O)c1 (configuration not stated) | 17.7 | 28.9 | 24.5 | 12.2 |  | 28.4 | 12.9 | 30.7 | 24.2 | 49 | 34.4 |  |  |  |  |  |  |  |  |
| COc1ccc([C@@H]2CC(=O)N2)cc1 | > 100 | > 100 |  | > 100 | > 100 | > 100 |  |  | > 100 | > 100 | > 100 |  |  |  |  |  |  |  |  |
| O=C(O)c1cnc(-n2[nH]c3c(c2=O)CCCC3)[nH]c1=O | > 100 | > 100 |  | > 100 | > 100 | > 100 |  | > 100 | > 100 | > 100 | > 100 |  |  |  |  |  |  |  |  |
